Measurements taken from the supplement of paper PMC10307832.

Tests used:
Experiment in all cases: relative viability (nuclei count vs DMSO), 5 days (fraction); higher = more cells survive
NCI-H460 = test system: NCI-H460
Procedure, shortened: (§1)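 Nuclei were stained with Hoechst during a one-step fixation (final 0.05% Triton X-100, 1% formaldehyde, 1 ug/ml Hoechst) carried out 5 days after dosing, then counted on 4× images. The cells, lung cancer lines in 1536-well plates, had been dosed by pin tool the day after seeding with one drug alone or a fixed anchor-drug dose plus five library-drug doses (not always all listed) in √10 steps. Relative viability is the nuclei count in treated wells divided by that in vehicle wells, and each value is the median of duplicate plates.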

NCI-H3122 = test system: NCI-H3122
Procedure, shortened: as §1

NCI-H1915 = test system: NCI-H1915
Procedure, shortened: as §1

NCI-H520 = test system: NCI-H520
Procedure, shortened: as §1

RERF-LC-KJ = test system: RERF-LC-KJ
Procedure, shortened: as §1

LCLC-103H = test system: LCLC-103H
Procedure, shortened: as §1

NCI-H1355 = test system: NCI-H1355
Procedure, shortened: as §1

NCI-H661 = test system: NCI-H661
Procedure, shortened: as §1

PC-14 = test system: PC-14
Procedure, shortened: as §1

NCI-H1563 = test system: NCI-H1563
Procedure, shortened: as §1

LXF-289 = test system: LXF-289
Procedure, shortened: as §1

NCI-H1651 = test system: NCI-H1651
Procedure, shortened: as §1

NCI-H2347 = test system: NCI-H2347
Procedure, shortened: as §1

NCI-H1792 = test system: NCI-H1792
Procedure, shortened: as §1

NCI-H727 = test system: NCI-H727
Procedure, shortened: as §1

NCI-H596 = test system: NCI-H596
Procedure, shortened: as §1

NCI-H322M = test system: NCI-H322M
Procedure, shortened: as §1

NCI-H441 = test system: NCI-H441
Procedure, shortened: as §1

NCI-H1755 = test system: NCI-H1755
Procedure, shortened: as §1

With `CCN(CC)CCCCNc1ncc2cc(-c3cc(OC)cc(OC)c3)c(NC(=O)NC(C)(C)C)nc2n1` + CC(C)C[C@H](NC(=O)[C@H](Cc1ccccc1)NC(=O)c1cnccn1)B(O)O [Bortezomib] (partner 0.002 µM) the relative viability (NCI-H460; first compound 0.01 µM) was 1.3, the relative viability (NCI-H460; first compound 0.03162 µM) was 1.33 and the relative viability (NCI-H460; first compound 0.3162 µM) was 1.62. For the same compound, the relative viability (NCI-H460; first compound 1 µM) was 1.04, the relative viability (NCI-H3122; first compound 0.01 µM) was 1.02 and the relative viability (NCI-H3122; first compound 0.03162 µM) was 1.07. The relative viability (NCI-H3122; first compound 0.1 µM) was 1.1, the relative viability (NCI-H3122; first compound 0.3162 µM) was 1.06 and the relative viability (NCI-H3122; first compound 1 µM) was 1.01. For the same compound, the relative viability (NCI-H1915; first compound 0.01 µM) was 1.07, the relative viability (NCI-H1915; first compound 0.03162 µM) was 1.1 and the relative viability (NCI-H1915; first compound 0.1 µM) was 1.18. The relative viability (NCI-H1915; first compound 0.3162 µM) was 1.09, the relative viability (NCI-H1915; first compound 1 µM) was 0.951 and the relative viability (NCI-H520; first compound 0.01 µM) was 0.787. It also gave a relative viability (NCI-H520; first compound 0.03162 µM) of 0.442, a relative viability (NCI-H520; first compound 0.1 µM) of 0.938 and a relative viability (NCI-H520; first compound 0.3162 µM) of 0.461. The relative viability (NCI-H520; first compound 1 µM) was 0.244, the relative viability (RERF-LC-KJ; first compound 0.01 µM) was 1.17 and the relative viability (RERF-LC-KJ; first compound 0.03162 µM) was 1.15. It also gave a relative viability (RERF-LC-KJ; first compound 0.1 µM) of 1.05, a relative viability (RERF-LC-KJ; first compound 0.3162 µM) of 1.21 and a relative viability (RERF-LC-KJ; first compound 1 µM) of 1. It also gave a relative viability (LCLC-103H; first compound 0.01 µM) of 1.07, a relative viability (LCLC-103H; first compound 0.03162 µM) of 1.06 and a relative viability (LCLC-103H; first compound 0.1 µM) of 1.09. It also gave a relative viability (LCLC-103H; first compound 0.3162 µM) of 1.13, a relative viability (LCLC-103H; first compound 1 µM) of 0.945 and a relative viability (NCI-H1355; first compound 0.01 µM) of 1.23. It also gave a relative viability (NCI-H1355; first compound 0.03162 µM) of 1.25, a relative viability (NCI-H1355; first compound 0.1 µM) of 1.29 and a relative viability (NCI-H1355; first compound 0.3162 µM) of 1.41. The relative viability (NCI-H1355; first compound 1 µM) was 1.13, the relative viability (NCI-H661; first compound 0.01 µM) was 0.892 and the relative viability (NCI-H661; first compound 0.03162 µM) was 0.811. It also gave a relative viability (NCI-H661; first compound 0.1 µM) of 0.745, a relative viability (NCI-H661; first compound 0.3162 µM) of 0.922 and a relative viability (NCI-H661; first compound 1 µM) of 0.634. The relative viability (PC-14; first compound 0.01 µM) was 0.894, the relative viability (PC-14; first compound 0.03162 µM) was 0.855 and the relative viability (PC-14; first compound 0.1 µM) was 0.947. It also gave a relative viability (PC-14; first compound 0.3162 µM) of 0.962, a relative viability (PC-14; first compound 1 µM) of 0.843 and a relative viability (NCI-H1563; first compound 0.01 µM) of 0.722. The relative viability (NCI-H1563; first compound 0.03162 µM) was 0.847, the relative viability (NCI-H1563; first compound 0.1 µM) was 0.818 and the relative viability (NCI-H1563; first compound 0.3162 µM) was 0.809. It also gave a relative viability (NCI-H1563; first compound 1 µM) of 0.52, a relative viability (LXF-289; first compound 0.01 µM) of 0.99 and a relative viability (LXF-289; first compound 0.03162 µM) of 1.08. The relative viability (LXF-289; first compound 0.1 µM) was 1.16, the relative viability (LXF-289; first compound 0.3162 µM) was 0.955 and the relative viability (LXF-289; first compound 1 µM) was 0.846. The relative viability (NCI-H1651; first compound 0.01 µM) was 1, the relative viability (NCI-H1651; first compound 0.03162 µM) was 0.94 and the relative viability (NCI-H1651; first compound 0.1 µM) was 1.06. It also gave a relative viability (NCI-H1651; first compound 0.3162 µM) of 1.03, a relative viability (NCI-H1651; first compound 1 µM) of 0.902 and a relative viability (NCI-H2347; first compound 0.01 µM) of 0.855. For the same compound, the relative viability (NCI-H2347; first compound 0.03162 µM) was 0.864, the relative viability (NCI-H2347; first compound 0.1 µM) was 1.2 and the relative viability (NCI-H2347; first compound 0.3162 µM) was 1.16. It also gave a relative viability (NCI-H2347; first compound 1 µM) of 0.639, a relative viability (NCI-H1792; first compound 0.01 µM) of 1.05 and a relative viability (NCI-H1792; first compound 0.03162 µM) of 1.05. The relative viability (NCI-H1792; first compound 0.1 µM) was 0.924, the relative viability (NCI-H1792; first compound 0.3162 µM) was 1.38 and the relative viability (NCI-H1792; first compound 1 µM) was 0.689. It also gave a relative viability (NCI-H727; first compound 0.01 µM) of 1.39, a relative viability (NCI-H727; first compound 0.03162 µM) of 0.871 and a relative viability (NCI-H727; first compound 0.1 µM) of 0.809. The relative viability (NCI-H727; first compound 0.3162 µM) was 1.2, the relative viability (NCI-H727; first compound 1 µM) was 0.783 and the relative viability (NCI-H596; first compound 0.01 µM) was 0.976. The relative viability (NCI-H596; first compound 0.03162 µM) was 1.06, the relative viability (NCI-H596; first compound 0.1 µM) was 1.03 and the relative viability (NCI-H596; first compound 0.3162 µM) was 1.16. It also gave a relative viability (NCI-H596; first compound 1 µM) of 0.923, a relative viability (NCI-H322M; first compound 0.01 µM) of 1.29 and a relative viability (NCI-H322M; first compound 0.03162 µM) of 1.36. For the same compound, the relative viability (NCI-H322M; first compound 0.1 µM) was 1.35, the relative viability (NCI-H322M; first compound 0.3162 µM) was 1.39 and the relative viability (NCI-H322M; first compound 1 µM) was 1.08. It also gave a relative viability (NCI-H441; first compound 0.01 µM) of 0.475, a relative viability (NCI-H441; first compound 0.03162 µM) of 0.45 and a relative viability (NCI-H441; first compound 0.1 µM) of 0.817. It also gave a relative viability (NCI-H441; first compound 0.3162 µM) of 0.489, a relative viability (NCI-H441; first compound 1 µM) of 0.492 and a relative viability (NCI-H1755; first compound 0.01 µM) of 0.977. For the same compound, the relative viability (NCI-H1755; first compound 0.03162 µM) was 0.992, the relative viability (NCI-H1755; first compound 0.1 µM) was 1.01 and the relative viability (NCI-H1755; first compound 0.3162 µM) was 1.07. For the same compound, the relative viability (NCI-H1755; first compound 1 µM) was 0.936.
